Source: patent US20260234129A1, “NOVEL IMIDAZOLE DERIVATIVE AND USE THEREOF” (PELEMED CO., LTD., priority 2023, published 2026)

Columns and labels:
Test in all cases: scanMax kinase panel (Eurofins)
Type in all cases: binding
[1] = molecular target: T1, ABL1(H396P)-nonphosphorylated (Homo sapiens, UniProt P00519, H396P); details: read-out: % control
T1 construct: purchased Eurofins
Method: (§1) The following assay method was performed to evaluate the inhibitory activities of a compound according to the present invention with respect to various enzymes. […] The compound was applied to the enzyme at a concentration of 1 μM, dissolved in DMSO, and the % control was determined according to Equation 1 below.
(§2) Here, the positive control refers to a compound corresponding to 0% control, and the negative control refers to a compound corresponding to 100% control.

[2] = molecular target: T2, ABL1(H396P)-phosphorylated (Homo sapiens, UniProt P00519, H396P); details: read-out: % control
T2 construct: purchased Eurofins
Method: as §1, §2

[3] = molecular target: T3, ABL1(T315I)-nonphosphorylated (Homo sapiens, UniProt P00519, T315I); details: read-out: % control
T3 construct: purchased Eurofins
Method: as §1, §2

[4] = molecular target: T4, ABL1(Y253F)-phosphorylated (Homo sapiens, UniProt P00519, Y253F); details: read-out: % control
T4 construct: purchased Eurofins
Method: as §1, §2

[5] = molecular target: T5, CDK3 (Homo sapiens, UniProt Q00526); details: CDK3, 1 μM; read-out: % control
T5 construct: purchased Eurofins
Method: as §1, §2

[6] = molecular target: T6, CDK4-cycllinDl (Homo sapiens, UniProt P11802); details: read-out: % control
T6 construct: purchased Eurofins
T6 sequence (P11802 whole entry): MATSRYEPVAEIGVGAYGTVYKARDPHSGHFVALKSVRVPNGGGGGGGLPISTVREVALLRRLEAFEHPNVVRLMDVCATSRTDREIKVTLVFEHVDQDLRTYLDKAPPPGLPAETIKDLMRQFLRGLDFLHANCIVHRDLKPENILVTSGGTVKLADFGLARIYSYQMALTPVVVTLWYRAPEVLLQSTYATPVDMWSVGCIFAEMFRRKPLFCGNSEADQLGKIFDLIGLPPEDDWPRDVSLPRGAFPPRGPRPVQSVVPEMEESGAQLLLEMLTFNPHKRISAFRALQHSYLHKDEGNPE
T6 sequence (P24385 whole entry partner): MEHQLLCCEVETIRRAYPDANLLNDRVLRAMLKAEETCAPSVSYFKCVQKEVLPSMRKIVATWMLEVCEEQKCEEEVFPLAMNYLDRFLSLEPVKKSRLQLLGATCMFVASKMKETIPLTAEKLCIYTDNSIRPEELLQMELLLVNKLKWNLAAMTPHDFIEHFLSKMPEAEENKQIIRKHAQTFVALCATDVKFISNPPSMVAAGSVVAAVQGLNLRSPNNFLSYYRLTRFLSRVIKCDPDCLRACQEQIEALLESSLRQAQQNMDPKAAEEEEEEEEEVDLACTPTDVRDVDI
Method: as §1, §2

[7] = molecular target: T7, CDK5 (Homo sapiens, UniProt Q00535); details: CDK5, 1 μM; read-out: % control
T7 construct: purchased Eurofins scanMax® kinase panel
Method: as §1, §2

[8] = molecular target: T8, ERK4 (Homo sapiens, UniProt P31152); details: ERK4, 1 μM; read-out: % control
T8 construct: purchased Eurofins scanMax® kinase panel
T8 sequence (P31152 whole entry): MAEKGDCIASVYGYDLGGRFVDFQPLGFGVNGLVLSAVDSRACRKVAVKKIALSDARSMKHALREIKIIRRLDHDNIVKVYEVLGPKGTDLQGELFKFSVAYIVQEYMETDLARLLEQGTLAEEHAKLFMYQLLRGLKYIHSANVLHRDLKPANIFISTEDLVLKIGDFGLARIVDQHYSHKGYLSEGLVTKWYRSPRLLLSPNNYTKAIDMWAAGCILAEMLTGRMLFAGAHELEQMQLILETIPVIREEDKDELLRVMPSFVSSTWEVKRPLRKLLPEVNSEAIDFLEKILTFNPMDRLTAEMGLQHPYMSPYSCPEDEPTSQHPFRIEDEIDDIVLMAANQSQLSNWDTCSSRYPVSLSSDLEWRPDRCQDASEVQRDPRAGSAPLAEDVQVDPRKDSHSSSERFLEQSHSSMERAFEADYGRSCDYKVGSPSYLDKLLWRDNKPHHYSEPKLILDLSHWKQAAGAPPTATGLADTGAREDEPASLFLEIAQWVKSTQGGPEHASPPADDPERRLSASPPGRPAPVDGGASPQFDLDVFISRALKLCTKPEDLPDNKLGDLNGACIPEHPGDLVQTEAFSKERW
Method: as §1, §2

[9] = molecular target: T9, GSK3B (Homo sapiens, UniProt P49841); details: read-out: % control
T9 construct: purchased Eurofins scanMax® kinase panel
Method: as §1, §2

[10] = molecular target: T10, HASPIN (Homo sapiens, UniProt Q8TF76); details: read-out: % control
T10 construct: purchased Eurofins scanMax® kinase panel
T10 sequence (Q8TF76 whole entry): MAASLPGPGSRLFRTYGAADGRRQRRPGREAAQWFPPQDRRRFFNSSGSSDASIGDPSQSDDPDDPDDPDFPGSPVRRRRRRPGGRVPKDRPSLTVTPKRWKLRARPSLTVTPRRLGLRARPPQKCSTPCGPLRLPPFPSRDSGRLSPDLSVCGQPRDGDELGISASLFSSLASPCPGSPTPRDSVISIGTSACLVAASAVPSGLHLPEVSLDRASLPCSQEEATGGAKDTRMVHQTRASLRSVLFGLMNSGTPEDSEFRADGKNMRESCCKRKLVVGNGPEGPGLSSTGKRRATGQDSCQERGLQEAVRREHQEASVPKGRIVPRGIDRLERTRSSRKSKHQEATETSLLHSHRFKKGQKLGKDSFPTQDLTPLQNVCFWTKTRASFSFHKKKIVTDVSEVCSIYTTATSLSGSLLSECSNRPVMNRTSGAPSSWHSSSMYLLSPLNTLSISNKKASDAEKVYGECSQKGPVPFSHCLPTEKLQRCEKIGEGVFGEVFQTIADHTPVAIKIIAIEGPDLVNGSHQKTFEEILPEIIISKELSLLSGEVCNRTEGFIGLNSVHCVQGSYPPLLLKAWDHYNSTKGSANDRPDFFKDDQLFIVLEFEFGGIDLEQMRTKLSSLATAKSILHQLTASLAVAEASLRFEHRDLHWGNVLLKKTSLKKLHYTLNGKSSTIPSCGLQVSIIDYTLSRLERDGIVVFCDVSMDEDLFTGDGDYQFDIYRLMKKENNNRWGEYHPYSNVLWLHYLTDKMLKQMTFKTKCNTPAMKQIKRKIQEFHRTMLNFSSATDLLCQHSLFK
Method: as §1, §2

[11] = molecular target: T11, HIPK1 (Homo sapiens, UniProt Q86Z02); details: HIPK1, 1 μM; read-out: % control
T11 construct: purchased Eurofins scanMax® kinase panel
T11 sequence (Q86Z02 whole entry): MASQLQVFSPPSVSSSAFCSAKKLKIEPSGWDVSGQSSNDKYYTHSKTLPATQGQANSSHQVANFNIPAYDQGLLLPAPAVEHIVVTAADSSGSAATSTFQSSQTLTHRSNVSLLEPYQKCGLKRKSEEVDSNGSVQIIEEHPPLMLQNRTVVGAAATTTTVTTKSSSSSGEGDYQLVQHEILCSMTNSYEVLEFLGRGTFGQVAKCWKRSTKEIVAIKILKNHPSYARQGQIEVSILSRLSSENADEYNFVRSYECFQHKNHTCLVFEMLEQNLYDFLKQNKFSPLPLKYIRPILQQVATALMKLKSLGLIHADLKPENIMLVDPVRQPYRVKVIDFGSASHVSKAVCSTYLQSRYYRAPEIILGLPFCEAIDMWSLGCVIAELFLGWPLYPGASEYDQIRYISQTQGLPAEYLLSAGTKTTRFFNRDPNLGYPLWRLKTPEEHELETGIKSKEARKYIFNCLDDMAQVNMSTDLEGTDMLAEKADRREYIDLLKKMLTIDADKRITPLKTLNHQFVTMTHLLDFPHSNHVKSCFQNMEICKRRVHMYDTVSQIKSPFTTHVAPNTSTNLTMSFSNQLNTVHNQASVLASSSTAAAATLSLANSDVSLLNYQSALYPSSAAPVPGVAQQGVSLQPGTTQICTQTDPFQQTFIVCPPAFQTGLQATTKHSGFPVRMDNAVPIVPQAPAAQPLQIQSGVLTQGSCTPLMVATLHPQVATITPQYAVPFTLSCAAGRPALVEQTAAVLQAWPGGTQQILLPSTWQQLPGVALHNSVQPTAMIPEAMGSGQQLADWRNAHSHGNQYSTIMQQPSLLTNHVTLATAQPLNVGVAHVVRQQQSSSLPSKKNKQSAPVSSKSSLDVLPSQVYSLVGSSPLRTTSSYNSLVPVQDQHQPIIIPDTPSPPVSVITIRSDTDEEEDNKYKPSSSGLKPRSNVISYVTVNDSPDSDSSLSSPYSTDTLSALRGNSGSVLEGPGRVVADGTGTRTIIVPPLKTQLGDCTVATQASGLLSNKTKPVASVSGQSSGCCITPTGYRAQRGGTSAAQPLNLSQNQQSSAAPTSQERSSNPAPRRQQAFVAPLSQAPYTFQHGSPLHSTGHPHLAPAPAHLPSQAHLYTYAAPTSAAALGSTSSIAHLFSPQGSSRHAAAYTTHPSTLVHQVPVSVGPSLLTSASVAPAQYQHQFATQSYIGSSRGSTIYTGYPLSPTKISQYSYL
Method: as §1, §2

[12] = molecular target: T12, HIPK2 (Homo sapiens, UniProt Q9H2X6); details: HIPK2, 1 μM; read-out: % control
T12 construct: purchased Eurofins scanMax® kinase panel
T12 sequence (Q9H2X6 whole entry): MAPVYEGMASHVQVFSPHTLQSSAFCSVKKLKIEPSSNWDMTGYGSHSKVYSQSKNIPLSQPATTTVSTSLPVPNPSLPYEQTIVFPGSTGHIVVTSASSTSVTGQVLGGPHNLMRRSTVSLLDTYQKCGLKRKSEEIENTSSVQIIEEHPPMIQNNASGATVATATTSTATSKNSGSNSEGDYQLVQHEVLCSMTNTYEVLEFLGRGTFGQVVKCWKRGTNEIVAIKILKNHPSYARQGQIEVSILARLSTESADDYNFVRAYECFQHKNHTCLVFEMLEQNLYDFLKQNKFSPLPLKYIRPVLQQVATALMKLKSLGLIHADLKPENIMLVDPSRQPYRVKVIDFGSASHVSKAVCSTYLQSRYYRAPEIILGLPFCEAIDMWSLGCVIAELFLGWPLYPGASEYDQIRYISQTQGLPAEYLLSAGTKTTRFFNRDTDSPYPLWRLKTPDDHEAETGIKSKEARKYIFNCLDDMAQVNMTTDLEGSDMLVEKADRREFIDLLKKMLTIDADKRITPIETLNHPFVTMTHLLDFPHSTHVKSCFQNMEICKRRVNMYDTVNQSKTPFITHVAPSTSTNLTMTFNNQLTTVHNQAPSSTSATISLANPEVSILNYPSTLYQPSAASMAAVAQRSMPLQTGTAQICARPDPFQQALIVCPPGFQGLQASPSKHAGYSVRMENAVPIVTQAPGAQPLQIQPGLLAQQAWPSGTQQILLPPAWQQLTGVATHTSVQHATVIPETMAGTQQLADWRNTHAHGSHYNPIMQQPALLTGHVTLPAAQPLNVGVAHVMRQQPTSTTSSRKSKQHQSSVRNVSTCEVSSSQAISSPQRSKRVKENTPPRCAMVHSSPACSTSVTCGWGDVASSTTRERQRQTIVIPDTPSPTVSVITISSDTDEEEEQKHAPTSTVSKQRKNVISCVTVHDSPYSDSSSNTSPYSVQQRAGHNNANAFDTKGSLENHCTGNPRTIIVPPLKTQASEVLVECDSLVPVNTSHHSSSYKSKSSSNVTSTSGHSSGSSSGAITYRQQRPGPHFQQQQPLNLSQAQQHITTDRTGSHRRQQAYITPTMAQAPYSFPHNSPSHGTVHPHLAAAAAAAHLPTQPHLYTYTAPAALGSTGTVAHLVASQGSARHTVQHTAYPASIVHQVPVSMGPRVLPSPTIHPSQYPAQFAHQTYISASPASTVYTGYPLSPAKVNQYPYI
Method: as §1, §2

[13] = molecular target: T13, KIT(D816V) (Homo sapiens, UniProt P10721, D816V); details: read-out: % control
T13 construct: purchased Eurofins
Method: as §1, §2

[14] = molecular target: T14, MAP3K15 (Homo sapiens, UniProt Q6ZN16); details: MAP3K15, 1 μM; read-out: % control
T14 construct: purchased Eurofins
Method: as §1, §2

[15] = molecular target: T15, MAP3K3 (Homo sapiens, UniProt Q99759); details: MAP3K3, 1 μM; read-out: % control
T15 construct: purchased Eurofins
Method: as §1, §2

[16] = molecular target: T16, MEK5 (Homo sapiens, UniProt Q13163); details: MEK5, 1 μM; read-out: % control
T16 construct: purchased Eurofins scanMax kinase panel
T16 sequence (Q13163 whole entry): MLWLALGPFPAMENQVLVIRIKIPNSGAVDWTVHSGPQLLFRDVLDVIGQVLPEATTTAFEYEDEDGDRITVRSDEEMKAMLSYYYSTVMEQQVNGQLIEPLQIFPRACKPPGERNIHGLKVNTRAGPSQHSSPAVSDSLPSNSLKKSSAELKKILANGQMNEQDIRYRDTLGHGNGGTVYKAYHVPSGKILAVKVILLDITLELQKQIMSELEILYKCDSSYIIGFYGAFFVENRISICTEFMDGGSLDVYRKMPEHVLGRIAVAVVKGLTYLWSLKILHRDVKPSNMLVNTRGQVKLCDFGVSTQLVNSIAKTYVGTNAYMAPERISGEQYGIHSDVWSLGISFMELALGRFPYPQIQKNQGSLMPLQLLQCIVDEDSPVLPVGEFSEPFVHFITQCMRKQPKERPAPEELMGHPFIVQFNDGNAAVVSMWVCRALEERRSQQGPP
Method: as §1, §2

[17] = molecular target: T17, PIM2 (Homo sapiens, UniProt Q9P1W9); details: PIM2, 1 μM; read-out: % control
T17 construct: purchased Eurofins scanMax kinase panel
Method: as §1, §2

Measured: remaining binding at 1 µM

COc1ccc2nc(-c3n[nH]c4ccc(C(=O)N[C@H]5CC[C@H](N)C5)cc34)[nH]c2c1 [Example 32, N-((1S,3S)-3-aminocyclopentyl)-3-(6-methoxy-1H-benzo[d]imidazol-2-yl)-1H-indazole-5-carboxamide]
< 10%: all assays above
